Measurements: patent US20260055152A1, “INTRACELLULAR CX3CL1 DOMAIN PEPTIDES AND USES THEREOF” (University of Connecticut, priority 2022, published 2026)

System: Akt
Experiment: Akt inhibition assay in cultured N2A cells
Type: cell-based, mouse

With `NC1(c2ccc(-c3nc4ccn5c(=O)[nH]nc5c4cc3-c3ccccc3)cc2)CCC1` [MK2206] the “phosphorylation of GSK3β and Foxo3” value (N2A cells treated with 2 μM Tet34 or controls 24 hrs, then 2 μM MK2206 3hrs) was “diminish” and the “Tet34 induced effects on Foxo3 phosphorylation” value (N2A cultures with Tet-CX3CL1-ICD peptides in presence of MK2206) was “abolished”.
